This is an account of results in patent US11472862B2, “IL13Rα2 peptide and its uses” (priority 2017, dated 2022).

Non-standard residues stand in square brackets, D forms with d. No end group written: not given here.

The subject of assay [1] is KM12SM cells. The assay is described as follows: Cell adhesion assay to Matrigel. It counts as cell-based, human. The conditions noted are these: with IL-13, peptide 1 μg/ml. The method, then:
(§1) Recombinant human IL13 was used at […] (13) and was purchased from PeproTech. IL13Rα2-derived peptides (IL13Rα2D1: GSETWKTIITKN, SEQ ID NO: 3; IL13Rα2D1S: WKTIITKN, SEQ ID NO: 1; IL13Rα2Nter: FEIVDPGY, SEQ ID NO: 14; IL13Rα2Cter WSIPLGPI, SEQ ID NO: 15; IL13Rα2D1S-1A: WATIITKN, SEQ ID NO: 16; IL13Rα2D1S-2A WKAIITKN, SEQ ID NO: 17; IL13Rα2D1S-3A WKTAITKN, SEQ ID NO: 18; IL13Rα2D1S-4A WKTIATKN, SEQ ID NO: 19; IL13Rα2D1S-5A WKTIIAKN, SEQ ID NO: 20; IL13Rα2D1S-6A WKTIITAN, SEQ ID NO: 21) were synthesized using solid phase chemistry with a Focus XC instrument (AAPPtec). The enantio version D-IL13Rα2D1 (D-D1) peptide (GSETWKTIITKN, SEQ ID NO: 3) composed entirely by D-amino acids was purchased from Proteogenix (Schiltigheim, France). […]
(§2) Binding of D1 peptide to IL-13 was monitored by surface plasmon resonance on a BIAcore 3000 instrument (BIAcore Inc, Switzerland). […] The interaction between D1 peptide and the immobilized IL13 was determined by changes in the RU at different D1 concentrations. […] Cell proliferation was determined by absorbance at 560 nm and comparison with control cells collected ab initium. […] Bound cells were lysed with 1% SDS in PBS, and the extent of the adhesion was quantified using a fluorescence analyzer (POLARstar Galaxy, BMG Labtechnologies). […] Effective migration speed was calculated from the distance covered by cells in 24 h in each side of the wound. […]

For assay [2], the system named is KM12SM cells. The assay is described as follows: Cell invasion assay through Matrigel. It counts as cell-based, human. The conditions noted are these: with IL-13, peptide 1 μg/ml, 48 h. The method, then: as §1, §2
Assay [3] concerns KM12SM cells. The experiment in a line: MTT proliferation assay. It counts as cell-based, human. The conditions noted are these: with IL-13, peptide 1 μg/ml, 48 h. The method, then: as §1, §2
Background: Tetrazolium assays rely on reduction of a dye to a coloured formazan, in cell work by metabolically active cells.

Assay [4] concerns KM12SM cells. The assay is described as follows: Metastasis experiment in nude mice, Kaplan-Meier survival after intrasplenic inoculation. It counts as in vivo, Swiss nude mice. The method, then: (§3) FIG. 6. D1 and D-D1 peptides increase the survival of mice inoculated with metastatic tumor cells and inhibits glioblastoma xenografts. (A) Liver homing experiment. Metastatic KM12SM cells were treated with the IL13 and/or D1 peptide and inoculated in spleen of nude mice. […] (C) 10^7 U251 cells were inoculated subcutaneously into the flanks of mice. Eleven days after cell inoculation, when tumours reached a size of 100 mm^3, mice were treated with D-D1 peptide (3 μg/100 μL of PBS) subcutaneously or with saline solution in a total of 7 doses during 15 days. Tumours were measured every 2-3 days. **p<0.01 vs control.
Binding of D1 peptide to IL-13 was monitored by surface plasmon resonance on a BIAcore 3000 instrument (BIAcore Inc, Switzerland). IL-13 was covalently amino coupled to a CM-5 sensor chip. An immobilization level of 7700 RU was obtained. A nonderivatized flow cell was used as a control. The interaction between D1 peptide and the immobilized IL13 was determined by changes in the RU at different D1 concentrations. Cell Signaling Analysis Cancer cells were incubated 3 h in DMEM without serum, detached with 2 mM EDTA, washed and treated with IL-13 (PeproTech) (10 ng/ml) for different times in presence or absence of IL13Rα2D1 peptide. Then, cells were lysed with lysis buffer (1% Igepal, 50 mM Tris-HCl, 100 mM NaCl, 2 mM MgCl2, 10% glycerol, protease inhibitors (Complete Mini, Roche) and phosphatase inhibitor cocktails 2 and 3 (Sigma-Aldrich)). Protein extracts (60 μg) were separated in SDS-PAGE and transferred to nitrocellulose membranes, which were incubated with primary antibodies, washed and incubated with HRP-conjugated secondary antibodies (Sigma-Aldrich). […] Proliferation Assays Cancer cells were seeded at 1×10^4 cells/well on 96-well plates and were incubated for 48 h at 37° C. in DMEM with 0.5% serum in presence of IL-13 (10 ng/ml) and the indicated peptides, followed by 1 h incubation with Thyazolyl Blue Tretrazolium Bromide (MTT) (0.6 mg/mL) (Sigma-Aldrich). Cell proliferation was determined by absorbance at 560 nm and comparison with control cells collected ab initium. Cell Adhesion Assays Cancer cells were starved for 3 h, labeled with BCECF-AM (Molecular Probes), detached with EDTA/PBS and incubated in DMEM in the presence of IL-13 and the indicated peptides for 10 min at 37° C. Then, 6×10^4 cells in 100 μL were added to 96-well plates previously coated with Matrigel (0.4 μg/mm^2), and the plates were incubated for 25 min at 37° C. Subsequently, non-adhered cells were removed by three washes with DMEM. Bound cells were lysed with 1% SDS in PBS, and the extent of the adhesion was quantified using a fluorescence analyzer (POLARstar Galaxy, BMG Labtechnologies). Wound Healing Assays Cancer cells were cultured to confluence in Matrigel-coated plates (0.4 μg/mm^2), and a 1 mm-wide wound was done across the monolayer, which was incubated in serum-free medium alone or with IL-13 (10 ng/mL), in the presence or absence of the indicated peptides. Pictures were taken immediately and after 24 h culture at 37° C. after the injury. Effective migration speed was calculated from the distance covered by cells in 24 h in each side of the wound. Invasion Assays For Matrigel invasion assays, 6×10^4 cells were loaded onto […] pore-size filters coated with […] of Matrigel (1:3 dilution; BD Biosciences) in Transwell plates (Costar) in presence of the indicated peptides. The lower compartment of the invasion chamber was filled with IL-13 (10 ng/mL). After 48 h, non-invading cells were removed from the upper surface of the filter, and cells that migrated through the filter were fixed with 4% paraformaldehyde (Sigma-Aldrich), stained with crystal violet and counted under a microscope. […] Swiss nude mice (Charles River) (n=5 per condition) were inoculated in the spleen with 1.5×10^6 KM12SM cells in 0.1 mL PBS in presence or absence of the indicated peptides (1 μg/mL). A day after inoculation, mice were subjected to removal of the spleen. […]

The test system of assay [5] is U251 glioblastoma xenografts. The assay is described as follows: Glioblastoma xenograft tumour growth. It counts as in vivo, mice. The conditions noted are these: 3 μg/100 μL PBS subcutaneously, 7 doses during 15 days, start at 100 mm^3; p<0.01 vs control. How it is done: as §3
Additionally, the capacity of the D-D1 peptide to inhibit tumour growth in U251 glioblastoma xenografts was tested. For glioblastoma xenografts, 10^7 U251 cells were inoculated subcutaneously into the flanks of mice. Eleven days after cell inoculation, when tumours reached a size of 100 mm^3, mice were treated with D-D1 peptide (3 μg/100 μL of PBS) subcutaneously or with saline solution in a total of 7 doses during 15 days. Tumours were measured every 2-3 days.

Turning to “GSETWKTIITKN (G[dS][dE][dT][dW][dK][dT][dI][dI][dT][dK][dN]) [D-D1 peptide]”, the “Inhibition of IL-13-stimulated cell adhesion to Matrigel” value in the assay with KM12SM cells [1] was “inhibit cell adhesion, invasion and proliferation”. Further, the “Inhibition of IL-13-stimulated cell invasion through Matrigel” value in the assay on KM12SM cells [2] is “inhibit cell adhesion, invasion and proliferation”. In addition, the “Inhibition of IL-13-stimulated cell proliferation (MTT)” value in the assay with KM12SM cells [3] was “inhibit cell adhesion, invasion and proliferation”. Moreover, the “Mice surviving the experimental endpoint, without further treatment” value in the assay on KM12SM cells [4] (KM12SM intrasplenic, cells with peptide 1 μg/ml only, n=5 per condition) was “one”. Further, the “Metastatic lesions in surviving mice, without further treatment” value with KM12SM cells [4] (KM12SM intrasplenic, cells with peptide only) was “without lesions”. Also, the “Mice surviving the experimental endpoint, with peptide treatment” value with KM12SM cells [4] (KM12SM intrasplenic, cells with peptide plus 7 i.v. doses of 3 μg, n=5 per condition) is reported as “two”. Besides, in the assay on KM12SM cells [4] (KM12SM intrasplenic, cells with peptide plus i.v. treatment), the “Metastatic lesions at necropsy in surviving mice, with peptide treatment” value is on record as “no metastatic lesions at the necropsy”. In addition, the “Mouse survival, cells inoculated with peptide plus intravenous peptide treatment” value in the assay with KM12SM cells [4] (KM12SM intrasplenic, peptide 1 μg/ml with the cells, then 7 i.v. doses of 3 μg over 2 weeks, n=5) is given as “remarkable increase in survival”. Further, in the assay with KM12SM cells [4] (KM12SM intrasplenic, peptide 1 μg/ml with the cells, n=5), the “Mouse survival, cells inoculated with peptide, without further treatment” value is on record as “significant increase”. The “Change of survival of treated mice” value in the assay with KM12SM cells [4] (KM12SM metastasis model, treated mice versus control) is listed as “more than doubling the survival”. Further, in assay [5], the “Tumour growth of U251 xenografts” value is “significant growth arrest accompanied by a regression in the tumour size”.
